Molecular target: phosphorylated active hERK2 enzyme (Homo sapiens (Human), UniProt P28482)
Details: not given

phosphorylated active hERK2 enzyme, sequence (P28482 whole entry): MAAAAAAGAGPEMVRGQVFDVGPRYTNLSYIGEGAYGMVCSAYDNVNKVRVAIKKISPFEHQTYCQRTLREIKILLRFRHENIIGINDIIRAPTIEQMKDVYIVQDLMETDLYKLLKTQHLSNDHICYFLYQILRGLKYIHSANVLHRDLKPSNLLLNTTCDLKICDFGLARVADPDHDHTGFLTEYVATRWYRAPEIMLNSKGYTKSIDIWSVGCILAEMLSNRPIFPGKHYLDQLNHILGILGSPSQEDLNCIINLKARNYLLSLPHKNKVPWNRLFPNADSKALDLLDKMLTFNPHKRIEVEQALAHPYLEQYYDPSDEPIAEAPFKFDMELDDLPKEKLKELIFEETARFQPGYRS

IC50 [nM] | Structure (SMILES)
180 | CCO[C@H]1CCCC[C@@H]1NC(=O)Nc1cc2cnn(-c3ccnc(C)c3)c2cn1 (racemic) [Example 146, Racemic 1-[(1S,2S) and (1R,2R)-2-ethoxycyclohexyl]-3-[1-(2-methylpyridin-4-yl)-1H-pyrazolo[3,4-c]pyridin-5-yl]urea]

Same assay, conditions: read-out: ERK2 IC50; IMAP-FP assay; 0.5 nM hERK2, 30 μM ATP; 10 point titration, 3 μM starting concentration

Structure (SMILES) | IC50 [nM]
C[C@@H](NC(=O)Nc1cc2cnn(-c3ccc(F)cc3)c2c(COCCN2CCOCC2)n1)c1ccccc1 [Example 244, 1-{1-(4-fluorophenyl)-7-[(2-morpholin-4-ylethoxy)methyl]-1H-pyrazolo[3,4-c]pyridin-5-y1}-3-[(1R)-1-phenylethyl]urea] | 188
Cc1cc(-n2ncc3cc(NC(=O)N[C@@H]4CN(C)C5(COC5)[C@H]4c4ccccc4)ncc32)ccn1 [Example 201, 1-[(7S,8S)-5-methyl-8-phenyl-2-oxa-5-azaspiro[3.4]oct-7-yl]-3-[1-(2-methylpyridin-4-yl)-1H-pyrazolo[3,4-c]pyridin-5-yl]urea] | 0.689
Cc1cc(-n2ncc3cc(NC(=O)NC[C@H]4CCN(C)C4)ncc32)ccn1 [Example 289, 1-[1-(2-methylpyridin-4-yl)-1H-pyrazolo[3,4-c]pyridin-5-yl]-3-{[(3R)-1-methylpyrrolidin-3-yl]methyl}urea] | 36.6
Cc1cc(-n2ncc3cc(NC(=O)NC(C)c4csc(C)n4)ncc32)ccn1 (stereo not drawn) [Example 128, 1-[1-(2-methylpyridin-4-yl)-1H-pyrazolo[3,4-c]pyridin-5-yl]-3-[1-(2-methyl-1,3-thiazol-4-yl)ethyl]urea] | 2030
Cc1cc(-n2ncc3cc(NC(=O)NC4CCN(Cc5cccnc5)C4)ncc32)ccn1 (stereo not drawn) [Example 270, 1-[1-(2-methylpyridin-4-yl)-1H-pyrazolo[3,4-c]pyridin-5-yl]-3-[1-(pyridin-3-ylmethyl)-pyrrolidin-3-yl]urea] | 45.3
CO[C@H]1CN(Cc2c(F)cccc2F)C[C@@H]1NC(=O)Nc1cc2cnn(-c3ccnc(C)c3)c2cn1 [Example 269, 1-[(3S,4S)-1-(2,6-difluorobenzyl)-4-methoxypyrrolidin-3-yl]-3-[1-(2-methylpyridin-4-yl)-1H-pyrazolo[3,4-c]pyridin-5-yl]urea] | 5.39
Cc1cc(-n2ncc3cc(NC(=O)N[C@@H]4CN(C5CCC5)C[C@H]4c4ccccc4)ncc32)ccn1 [Example 196, 1-[(3S,4R)-1-cyclobutyl-4-phenylpyrrolidin-3-yl]-3-[1-(2-methylpyridin-4-yl)-1H-pyrazolo[3,4-c]pyridin-5-yl]urea] | 354
O=C(NCc1cccc(Cl)c1)Nc1cc2cnn(-c3ccncc3)c2cn1 [Example 41, 1-(3-chlorobenzyl)-3-(1-pyridin-4-yl-1H-pyrazolo[3,4-c]pyridin-5-yl)urea] | 0.499
Cc1cc(-n2ncc3cc(NC(=O)N[C@H]4CN(C)C[C@@H]4c4ccc(F)c(Cl)c4)ncc32)ccn1 [Example 18, 1-[(3R,4S)-4-(3-chloro-4-fluorophenyl)-1-methylpyrrolidin-3-yl]-3-[1-(2-methylpyridin-4-yl)-1H-pyrazolo[3,4-c]pyridin-5-yl)urea] | 2.14
Cc1cc(-n2ncc3cc(NC(=O)N[C@H]4CCN(C)C4)ncc32)ccn1 [Example 21, 1-[1-(2-methylpyridin-4-yl)-1H-pyrazolo[3,4-c]pyridin-5-yl]-3-[(3S)-1-methylpyrrolidin-3-yl)urea] | 767
CC(=O)N[C@H]1CCCC[C@@H]1NC(=O)Nc1cc2cnn(-c3ccnc(C)c3)c2cn1 [Example 139, N-[(1S,2S)-2-({[1-(2-methylpyridin-4-yl)-1H-pyrazolo[3,4-c]pyridin-5-yl]carbamoyl}amino)cyclohexyl] acetamide] | 2160
Cc1cc(-n2ncc3cc(NC(=O)NC4CC(=O)N(C)C4)ncc32)ccn1 (stereo not drawn) [Example 22, 1-(1-methyl-5-oxopyrrolidin-3-yl)-3-[1-(2-methylpyridin-4-yl)-1H-pyrazolo[3,4-c]pyridin-5-yl)urea] | 181
Cc1cc(-n2ncc3cc(NC(=O)NC4CCCC(c5ccc(F)cc5)C4)ncc32)ccn1 (stereo not drawn) [Example 173, 1-[3-(4-fluorophenyl)cyclohexyl]-3-[1-(2-methylpyridin-4-yl)-1H-pyrazolo[3,4-c]pyridin-5-yl]urea] | 11.6

The next lines start with the values.

IC50 [nM] | Structure (SMILES)
20.5 | Cc1cc(-n2ncc3cc(NC(=O)N[C@H]4CN(C)C[C@@H]4Oc4ccccc4)ncc32)ccn1 [Example 158, 1-[(3S,4S)-1-methyl-4-phenoxypyrrolidin-3-yl]-3-[1-(2-methylpyridin-4-yl)-1H-pyrazolo[3,4-c]pyridin-5-yl]urea]
141 | COCCNCc1nc(NC(=O)N[C@H](C)c2ccccc2)cc2cnn(-c3ccc(F)cc3)c12 [Example 318, 1-[1-(4-Fluorophenyl)-7-{[(2-methoxyethyl)amino]methyl}-1H-pyrazolo[3,4-c]pyridin-5-yl]-3-[(1R)-1-phenylethyl]urea]
0.962 | Cc1cc(-n2ncc3cc(NC(=O)NC(CN)c4ccccc4)ncc32)ccn1 (stereo not drawn) [Example 62, 1-(2-amino-1-phenylethyl)-3-[1-(2-methylpyridin-4-yl)-1H-pyrazolo[3,4-c]pyridin-5-yl]urea]
521 | Cc1cnc(-n2ncc3cc(NC(=O)N[C@H](C)c4ccccc4)ncc32)cn1 [Example 212, 1-[1-(5-methylpyrazin-2-yl)-1H-pyrazolo[3,4-c]pyridin-5-yl]-3-[(1R)-1-phenylethyl]urea]
54.4 | Cc1cc(-n2ncc3cc(NC(=O)NC4CNCC4c4ccccc4)ncc32)ccn1 (stereo not drawn) [Example 63, 1-[1-(2-methylpyridin-4-yl)-1H-pyrazolo[3,4-c]pyridin-5-yl]-3-(4-phenylpyrrolidin-3-yl)urea]
116 | CCNC(=O)OCc1nc(NC(=O)N[C@H](C)c2ccccc2)cc2cnn(-c3ccc(F)cc3)c12 [Example 327, [1-(4-Fluorophenyl)-5-({[(1R)-1-phenylethyl]carbamoyl}amino)-1H-pyrazolo[3,4-c]pyridin-7-yl]methyl ethylcarbamate]
5.45 | C[C@@H](NC(=O)Nc1cc2cnn(-c3cnn(C)c3)c2cn1)c1cccc(Cl)c1 [Example 217, 1-[(1R)-1-(3-chlorophenyl)ethyl]-3-[1-(1-methyl-1H-pyrazol-4-yl)-1H-pyrazolo[3,4-c]pyridin-5-yl]urea]
84.5 | Cc1cc(-n2ncc3cc(NC(=O)NCc4csc5ccccc45)ncc32)ccn1 [Example 125, 1-(1-benzothiophen-3-ylmethyl)-3-[1-(2-methylpyridin-4-yl)-1H-pyrazolo[3,4-c]pyridin-5-yl)urea]
70 | CC(C)(O)[C@@H](NC(=O)Nc1cc2cn[nH]c2cn1)c1ccccc1 [Example 230, (S)-1-(2-hydroxy-2-methyl-1-phenylpropyl)-3-(1H-pyrazolo[3,4-c]pyridin-5-yl)urea]
35.3 | CCn1ncc2cc(NC(=O)N[C@H](C)c3ccccc3)nc(OCCO)c21 [Example 258, 1-[1-ethyl-7-(2-hydroxyethoxy)-1H-pyrazolo[3,4-c]pyridin-5-yl]-3-[(1R)-1-phenylethyl]urea]
36.9 | Cn1ncc2cc(NC(=O)N[C@@H](c3ccccc3)C(C)(C)O)ncc21 [Example 228, 1-[(1S)-2-hydroxy-2-methyl-1-phenylpropyl]-3-(1-methyl-1H-pyrazolo[3,4-c]pyridin-5-yl)urea]
7.78 | Cc1cc(-n2ncc3cc(NC(=O)NC(C)c4ccc(S(C)(=O)=O)cc4)ncc32)ccn1 (stereo not drawn) [Example 66, 1-[1-(2-methylpyridin-4-yl)-1H-pyrazolo[3,4-c]pyridin-5-yl]-3-{1-[4-(methylsulfonyl)phenyl]ethyl}urea]
9.2 | O=C(NCCc1ccccc1F)Nc1cc2cnn(-c3ccncc3)c2cn1 [Example 40, 1-[2-(2-fluorophenyl)ethyl]-3-(1-pyridin-4-yl-1H-pyrazolo[3,4-c]pyridin-5-yl)urea]
196 | Cc1cc(-n2ncc3cc(NC(=O)NC4CC(=O)Nc5ccccc54)ncc32)ccn1 (stereo not drawn) [Example 80, 1-[1-(2-methylpyridin-4-yl)-1H-pyrazolo[3,4-c]pyridin-5-yl]-3-(2-oxo-1,2,3,4-tetrahydroquinolin-4-yl)urea]
60.8 | Cc1cc(-n2ncc3cc(NC(=O)N[C@@H]4CN(C(C)C)C[C@H]4c4ccccc4)ncc32)ccn1 [Example 197, 1-[(3S,4R)-1-(1-methyl-ethyl)-4-phenylpyrrolidin-3-yl]-3-[1-(2-methylpyridin-4-yl)-1H-pyrazolo[3,4-c]-pyridin-5-yl]urea]
158 | C[C@@H](NC(=O)Nc1cc2cnn(CC3CCOC3)c2c(CO)n1)c1ccccc1 (stereo partly drawn) [Example 311, 1-[7-(hydroxymethyl)-1-(tetra-hydrofuran-3-ylmethyl)-1H-pyrazolo[3,4-c]pyridin-5-yl]-3-[(1R)-1-phenylethyl]urea]

Reference: patent US9884048B2, “ERK inhibitors” (Merck Sharp & Dohme Corp., priority 2014, dated 2018)
